# Assay results published in US11780839B2, “Compounds for treating Huntington's disease” (PTC THERAPEUTICS, INC., priority 2018, dated 2023).
# Tested on: Endogenous Huntingtin Protein
# Test: Endogenous Huntingtin Protein Assay (ELISA-based Meso Scale Discovery electrochemiluminescence)
# Assay type: cell-based
# Settings: MSD electrochemiluminescence, Table 1
# Protocol: Compounds of Formula (I) or Formula (II) were tested using the Meso Scale Discovery (MSD) Assay provided in International Application No. PCT/US2016/066042, filed on Dec. 11, 2016 and claiming priority to U.S. Provisional Application 62/265,652 filed on Dec. 10, 2015, the entire contents of which are incorporated herein by reference.
# The Endogenous Huntingtin Protein assay used in Example 1 was developed using the ELISA-based MSD electrochemiluminescence assay platform.
# Endogenous Huntingtin Protein Assay
# Meso Scale Discovery (MSD) 96-well or 384-well plates were coated overnight at 4° C. with MW1 (expanded polyglutamine) or MAB2166 monoclonal antibody (for capture) at a concentration of 1 μg/mL in PBS (30 μL per well). Plates were then washed three times with 300 μL wash buffer (0.05% Tween-20 in PBS) and blocked (100 μL blocking buffer; 5% BSA in PBS) for 4-5 hours at room temperature with rotational shaking and then washed three times with wash buffer.
# Samples (25 μL) were transferred to the antibody-coated MSD plate and incubated overnight at 4° C. After removal of the lysates, the plate was washed three times with wash buffer, and 25 μL of #5656S (Cell signaling; rabbit monoclonal) secondary antibody (diluted to 0.25 μg/mL in 0.05% Tween-20 in blocking buffer) was added to each well and incubated with shaking for 1 Hour at room temperature. Following incubation with the secondary antibody, the wells were rinsed with wash buffer after which 25 μL of goat anti-rabbit SULFO TAG secondary detection antibody (required aspect of the MSD system) (diluted to 0.25 μg/mL in 0.05% Tween-20 in blocking buffer) was added to each well and incubated with shaking for 1 hour at room temperature. After rinsing three times with wash buffer, 150 μL of read buffer T with surfactant (MSD) were added to each empty well, and the plate was imaged on a SI 6000 imager (MSD) according to manufacturers' instructions provided for 96- or 384-well plates.
row,Compound,IC50 [µM]
1,"CN(c1ncc(-c2ccc(-c3ccn(C)n3)c(O)c2O)nn1)C1CC(C)(C)NC(C)(C)C1 [Cpd 368, 3-(1-methyl-1H-pyrazol-3-yl)-6-{3-[methyl(2,2,6,6-tetramethylpiperidin-4-yl)amino]-1,2,4-triazin-6-yl}benzene-1,2-diol]",0.1 to 0.5
2,CN(c1ncc(-c2ccc(-c3cnn(C)c3)cc2O)nn1)C1CC(C)(C)NC(C)(C)C1 [Cpd 16],≤ 0.1
3,"CC(C)(C)NC1CCN(c2ncc(-c3ccc(-c4c[nH]nn4)cc3O)nn2)C1 (centres unmarked) [Cpd 225, 2-{3-[3-(tert-butylamino)pyrrolidin-1-yl]-1,2,4-triazin-6-yl}-5-(1H-1,2,3-triazol-4-yl)phenol]",≤ 0.1
4,"Cn1ccc(-c2ccc(-c3cnc(N[C@H]4CC(C)(C)NC(C)(C)[C@H]4F)nn3)c(O)c2)n1 [Cpd 261, 2-(3-{[(3S,4S)-3-fluoro-2,2,6,6-tetramethylpiperidin-4-yl]amino}-1,2,4-triazin-6-yl)-5-(1-methyl-1H-pyrazol-3-yl)phenol]",≤ 0.1
5,"CN(c1ncc(-c2ccc(-n3cc(C#N)cn3)cc2O)nn1)C1CC(C)(C)NC(C)(C)C1 [Cpd 135, 1-(3-hydroxy-4-{3-[methyl(2,2,6,6-tetramethylpiperidin-4-yl)amino]-1,2,4-triazin-6-yl}phenyl)-1H-pyrazole-4-carbonitrile]",0.1 to 0.5
6,"Oc1cc(-c2cn[nH]c2)ccc1-c1cnc(N2CCC3(CCCN3)C2)nn1 (centres unmarked) [Cpd 339, 2-[3-(1,7-diazaspiro[4.4]nonan-7-yl)-1,2,4-triazin-6-yl]-5-(1H-pyrazol-4-yl)phenol]",≤ 0.1
7,"N[C@H]1CC[C@@H]2CN(c3ncc(-c4ccc(-c5cn[nH]c5)cc4O)nn3)C[C@@H]21 [Cpd 165, 2-{3-[(3aR,4S,6aS)-4-aminohexahydrocyclopenta[c]pyrrol-2(1H)-yl]-1,2,4-triazin-6-yl}-5-(1H-pyrazol-4-yl)phenol]",≤ 0.1
8,"CNC1CCN(c2ncc(-c3ccc(-n4ccnc4)cc3O)nn2)C1 (centres unmarked) [Cpd 220, 5-(1H-imidazol-1-yl)-2-{3-[3-(methylamino)pyrrolidin-1-yl]-1,2,4-triazin-6-yl}phenol]",> 0.5
9,"CN(c1ncc(-c2ccc(-n3ncc4ccncc43)cc2O)nn1)C1CC(C)(C)NC(C)(C)C1 [Cpd 381, 2-{3-[methyl(2,2,6,6-tetramethylpiperidin-4-yl)amino]-1,2,4-triazin-6-yl}-5-(1H-pyrazolo[3,4-c]pyridin-1-yl)phenol]",≤ 0.1
10,"5-[1-(^2H3)methyl-1H-pyrazol-4-yl]-2-{6-[methyl(2,2,6,6-tetramethylpiperidin-4-yl)amino]-1,2,4-triazin-3-yl}phenol [Cpd 192]",0.1 to 0.5
11,"CN(c1ncc(-c2ccc(-c3cn(C)nc3F)cc2O)nn1)C1CC(C)(C)NC(C)(C)C1 [Cpd 18, 5-(3-fluoro-1-methyl-1H-pyrazol-4-yl)-2-{3-[methyl(2,2,6,6-tetramethylpiperidin-4-yl)amino]-1,2,4-triazin-6-yl}phenol]",≤ 0.1
12,"CN(c1ncc(-c2ccc(-c3ccc4[nH]ncc4n3)cc2O)nn1)C1CC(C)(C)NC(C)(C)C1 [Cpd 136, 2-{3-[methyl(2,2,6,6-tetramethylpiperidin-4-yl)amino]-1,2,4-triazin-6-yl}-5-(1H-pyrazolo[4,3-b]pyridin-5-yl)phenol]",≤ 0.1
13,"CN(c1ncc(-c2ccc(-n3ncc(CO)n3)cc2O)nn1)C1CC(C)(C)NC(C)(C)C1 [Cpd 172, 5-[4-(hydroxymethyl)-2H-1,2,3-triazol-2-yl]-2-{3-[methyl(2,2,6,6-tetramethylpiperidin-4-yl)amino]-1,2,4-triazin-6-yl}phenol]",≤ 0.1
14,"CN(c1ncc(-c2ccc(-c3cnc4[nH]ccc4n3)cc2O)nn1)C1CC(C)(C)NC(C)(C)C1 [Cpd 158, 2-{3-[methyl(2,2,6,6-tetramethylpiperidin-4-yl)amino]-1,2,4-triazin-6-yl}-5-(5H-pyrrolo[2,3-b]pyrazin-2-yl)phenol]",1 to 3
15,"COc1cc(-c2cn[nH]c2)cc(O)c1-c1cnc(N2CCC(NC(C)(C)C)C2)nn1 (centres unmarked) [Cpd 376, 2-{3-[3-(tert-butylamino)pyrrolidin-1-yl]-1,2,4-triazin-6-yl}-3-methoxy-5-(1H-pyrazol-4-yl)phenol]",≤ 0.1
16,"Cc1cn(-c2ccc(-c3cnc(N4CCC(NC(C)(C)C)C4)nn3)c(O)c2)cn1 (stereo not drawn) [Cpd 197, 2-{3-[3-(tert-butylamino)pyrrolidin-l-yl]-1,2,4-triazin-6-yl}-5-(4-methyl-1H-imidazol-1-yl)phenol]",0.1 to 0.5

row,Compound,IC50 [µM]
1,"CN(c1ncc(-c2ccc(-c3cc4nc[nH]c4c(F)c3F)cc2O)nn1)C1CC(C)(C)NC(C)(C)C1 [Cpd 301, 5-(6,7-difluoro-1H-benzimidazol-5-yl)-2-{3-[methyl(2,2,6,6-tetramethylpiperidin-4-yl)amino]-1,2,4-triazin-6-yl}phenol]",≤ 0.1
2,"CN(c1ncc(-c2ccc(-c3ncns3)cc2O)nn1)C1CC(C)(C)NC(C)(C)C1 [Cpd 65, 2-{3-[methyl(2,2,6,6-tetramethylpiperidin-4-yl)amino]-1,2,4-triazin-6-yl}-5-(1,2,4-thiadiazol-5-yl)phenol]",≤ 0.1
3,"Cc1cnn(-c2ccc(-c3cnc(N(C)C4CC(C)(C)NC(C)(C)C4)nn3)c(O)c2)n1 [Cpd 69, 2-{3-[methyl(2,2,6,6-tetramethylpiperidin-4-yl)amino]-1,2,4-triazin-6-yl}-5-(4-methyl-2H-1,2,3-triazol-2-yl)phenol]",≤ 0.1
4,"Oc1cc(-c2cn[nH]c2)ccc1-c1cnc(N2CCC(NC3CCCC3)C2)nn1 (stereo not drawn) [Cpd 357, 2-{3-[3-(cyclopentylamino)pyrrolidin-l-yl]-1,2,4-triazin-6-yl}-5-(1H-pyrazol-4-yl)phenol]",≤ 0.1
5,"CC(C)(C)NC1CCN(c2ncc(-c3ccc(-c4ncco4)cc3O)nn2)C1 (centres unmarked) [Cpd 250, 2-{3-[3-(tert-butylamino)pyrrolidin-1-yl]-1,2,4-triazin-6-yl}-5-(1,3-oxazol-2-yl)phenol]",0.1 to 0.5
6,"COc1cc(-c2ccc(-c3cnc(N4CCC(NC(C)C)C4)nn3)c(O)c2)ncn1 (centres unmarked) [Cpd 265, 5-(6-methoxypyrimidin-4-yl)-2-(3-{3-[(propan-2-yl)amino]pyrrolidin-1-yl}-1,2,4-triazin-6-yl)phenol]",≤ 0.1
7,"Oc1cc(-c2cn[nH]c2)ccc1-c1cnc(N2C[C@@H]3CCCN[C@@H]3C2)nn1 [Cpd 306, 2-{3-[(4aS,7aS)-octahydro-6H-pyrrolo[3,4-b]pyridin-6-yl]-1,2,4-triazin-6-yl}-5-(1H-pyrazol-4-yl)phenol]",0.1 to 0.5
8,"CC(C)NC1CCN(c2ncc(-c3ccc(-c4c[nH]nn4)cc3O)nn2)C1 (centres unmarked) [Cpd 258, 2-(3-{3-[(propan-2-yl)amino]pyrrolidin-1-yl}-1,2,4-triazin-6-yl)-5-(1H-1,2,3-triazol-4-yl)phenol]",≤ 0.1
9,"CC(C)NC1CCN(c2ncc(-c3ccc(-c4ccn(C)c(=O)c4)cc3O)nn2)C1 (centres unmarked) [Cpd 227, 4-[3-hydroxy-4-(3-{3-[(propan-2-yl)amino]pyrrolidin-1-yl}-1,2,4-triazin-6-yl)phenyl]-1-methylpyridin-2(1H)-one]",≤ 0.1
10,"CC(C)NCC1CCN(c2ncc(-c3ccc(-c4cn[nH]c4)cc3O)nn2)C1 (stereo not drawn) [Cpd 361, 2-[3-(3-{[(propan-2-yl)amino]methyl}pyrrolidin-l-yl)-1,2,4-triazin-6-yl]-5-(1H-pyrazol-4-yl)phenol]",≤ 0.1
11,"CN(c1ncc(-c2cc3cccnc3cc2O)nn1)C1CC(C)(C)NC(C)(C)C1 [Cpd 105, 6-{3-[methyl(2,2,6,6-tetramethylpiperidin-4-yl)amino]-1,2,4-triazin-6-yl}quinolin-7-ol]",0.1 to 0.5
12,"[2H]C([2H])([2H])n1cc(-c2ccc(-c3cnc(N4CCC(NC(C)(C)C)C4)nn3)c(O)c2)cn1 (stereo not drawn) [Cpd 367, 2-{3-[3-(tert-butylamino)pyrrolidin-l-yl]-1,2,4-triazin-6-yl}-5-[1-(^2H3)methyl-1H-pyrazol-4-yl]phenol]",≤ 0.1
13,"Cc1ncc(-c2ccc(-c3cnc(N4CC5(CCN(C)CC5)C4)nn3)c(O)c2)o1 [Cpd 299, 2-[3-(7-methyl-2,7-diazaspiro[3.5]nonan-2-yl)-1,2,4-triazin-6-yl]-5-(2-methyl-1,3-oxazol-5-yl)phenol]",≤ 0.1
14,"CC1(C)CC(Oc2ncc(-c3ccc(-c4cc[nH]n4)cc3O)nn2)CC(C)(C)N1 [Cpd 107, 5-(1H-pyrazol-3-yl)-2-{3-[(2,2,6,6-tetramethylpiperidin-4-yl)oxy]-1,2,4-triazin-6-yl}phenol]",1 to 3
15,"CO[C@H]1[C@@H](Nc2ncc(-c3ccc(-c4cn[nH]c4)cc3O)nn2)CC(C)(C)NC1(C)C [Cpd 286, 2-(3-{[(3S,4S)-3-methoxy-2,2,6,6-tetramethylpiperidin-4-yl]amino}-1,2,4-triazin-6-yl)-5-(1H-pyrazol-4-yl)phenol]",0.1 to 0.5
16,"Cc1cn(-c2ccc(-c3cnc(N4CC5(CCN(C)CC5)C4)nn3)c(O)c2)cn1 [Cpd 228, 2-[3-(7-methyl-2,7-diazaspiro[3.5]nonan-2-yl)-1,2,4-triazin-6-yl]-5-(4-methyl-1H-imidazol-1-yl)phenol]",≤ 0.1
